These results are taken from publication PMC6943736, “Bio-Guided Isolation of Prospective Bioactive Constituents from Roots of Clausena indica (Dalzell) Oliv” (Molecules, 2019).

For the experiment, the target named is tyrosinase. The experiment is described as follows: enzyme assay with L-tyrosine substrate, […] nm. It is filed as biochemical.

For the compound `COc1ccc2c(c1)[nH]c1cc(OC)c(C(=O)O)cc12` [L3, Clausine K], the “Tyrosinase Inhibition IC50” value is reported as 179.5 µg/mL.
